Assay: Solid-liquid equilibrium temperature
Settings: closed cylinder with variable piston

CCCCCCCCCCCCCCCC [hexadecane]
Crystal
Settings	Solid-liquid equilibrium temperature [K]
9210 kPa	293.15
50650 kPa	303.15
95560 kPa	313.15
143920 kPa	323.15
195740 kPa	333.15
251030 kPa	343.15

CCCCCCCCCCCCCCCCCC [octadecane]
Crystal
Settings	Solid-liquid equilibrium temperature [K]
8860 kPa	303.15
49600 kPa	313.15
94900 kPa	323.15
144780 kPa	333.15
199220 kPa	343.15
258230 kPa	353.15

CCCCCCCCCCCCC [tridecane]
Crystal 1
Settings	Solid-liquid equilibrium temperature [K]
100 kPa	268.21
133010 kPa	293.15
197120 kPa	303.15
265400 kPa	313.15
337830 kPa	323.15
414420 kPa	333.15
495170 kPa	343.15
